Data on one compound can be found in patent US7482024B2, “Compositions comprising an active agent” (Nektar Therapeutics, priority 1999, dated 2009).

This series is described as follows: Surface tension measurement, Kruss Processor Tensiometer-K12, Wilhelmy-method (plate method). The series is classed as physicochemical. The conditions noted are these: for Surface tension (ST): 1% raffinose. As to the method:
A “surface active” material is one having surface activity (measured, e.g., by surface tensiometry), as characterized by its ability to reduce the surface tension of the liquid in which it is dissolved. […] A peptide that is more surface active than another peptide is one which decreases the surface tension of water to a greater extent, when present in the liquid at the same concentration and measured under the same set of experimental conditions. The surface tension of several representative dipeptides, tripeptides, and proteins was measured at 25° C. and 45° C. to provide an indication of their relative surface activities. Surface tension measurements were carried out using a Kruss Processor Tensiometer-K12 with the Wilhelmy-method (Plate method). Solutions were prepared by dissolving either 0.05%, 0.2%, or 0.6% peptide/protein (by weight) along with an appropriate amount of raffinose by weight to provide final solutions having a 1.0% by weight solids content. Surface tension measurements at 25° C. and 45° C. were then obtained for the test solutions at three different time points (49 seconds, 100 seconds and 194 seconds).

Molecules are shown by their SMILES. Several values for one entry are separate records, joined by “and”; a condition that tells them apart may be missing. Equal entries are not always repeated.

As for `OC[C@H]1O[C@H](OC[C@H]2O[C@H](O[C@]3(CO)O[C@H](CO)[C@@H](O)[C@@H]3O)[C@H](O)[C@@H](O)[C@@H]2O)[C@H](O)[C@@H](O)[C@H]1O` [raffinose], the “Surface activity (ability to lower the surface tension of water), in words” value is given as “non-surface active”. Further, the “Surface tension (ST)” value (25° C., 49 s) is reported as 72 mN/m. Moreover, for the setting “25° C., 100 s”, the “Surface tension (ST)” value is listed as 72 mN/m. Moreover, the “Surface tension (ST)” value (25° C., 194 s) is 72 mN/m. Also, the “Surface tension (ST)” value (pH4, 25° C., 49 s) was 71.4 mN/m and 71.1 mN/m. The “Surface tension (ST)” value (pH4, 25° C., 100 s) was 71.4 mN/m and 71.1 mN/m. Moreover, the “Surface tension (ST)” value (pH4, 25° C., 194 s) was 71.4 mN/m and 71.1 mN/m. For the same compound, the “Surface tension (ST)” value (pH4, 45° C., 49 s) was 67.9 mN/m and 68.2 mN/m and 68 mN/m. The “Surface tension (ST)” value (pH4, 45° C., 100 s) is 68 mN/m and 68.2 mN/m. Besides, for the setting “pH4, 45° C., 194 s”, the “Surface tension (ST)” value was 68 mN/m and 68.2 mN/m and 68.1 mN/m. In addition, the “Surface tension (ST)” value (pH7, 25° C., 49 s) is 71.1 mN/m. Moreover, for the setting “pH7, 25° C., 100 s”, the “Surface tension (ST)” value turned out to be 71.1 mN/m. For the same compound, the “Surface tension (ST)” value (pH7, 25° C., 194 s) is listed as 71.1 mN/m. Further, the “Surface tension (ST)” value (pH7, 45° C., 49 s) is 68.4 mN/m and 68.3 mN/m. The “Surface tension (ST)” value (pH7, 45° C., 100 s) is 68.4 mN/m and 68.3 mN/m. Further, the “Surface tension (ST)” value (pH7, 45° C., 194 s) was 68.4 mN/m and 68.3 mN/m.
